Three compounds from ChEMBL document CHEMBL5325399, “Pleiotropic effects of a mitochondrion-targeted glutathione reductase inhibitor on restraining tumor cells” (Eur J Med Chem, 2023) can be followed below.

Data set [1] deals with HeLa. The data set can be described thus: Induction of mitochondrial morphological changes in human HeLa cells assessed as disappearance of cristae and vacuolar mitochondrial formation at 10 uM incubated for 48 hrs by transmission electron microscopy. It counts as functional, cell-based.
In data set [2] the test system is Cell membrane. The data set can be described thus: Dissipation of mitochondrial membrane potential in human HeLa cells assessed as proportion of cells with high MMP at 0.5 uM measured after 24 hrs by JC-1 staining based flow cytometry (reference value: 96.54%). The settings on record: Mitochondria.
Data set [3] relates to HeLa. Nature of the data set: Inhibition of mitochondrial respiration in human HeLa cells assessed as decrease in basal respiration. The data set is classed as functional, cell-based.
For data set [4], the system named is HeLa. The data set can be described thus: Inhibition of mitochondrial respiration in human HeLa cells assessed as decrease in oxygen consumption rate at 2 uM incubated for 24 hrs by Seahorse XF-bioenergetic system analysis. The data set is classed as functional, cell-based.
Data set [5] relates to Cell membrane. Nature of the data set: Dissipation of mitochondrial membrane potential in human HeLa cells assessed as proportion of cells with high MMP at 5 uM measured after 24 hrs by JC-1 staining based flow cytometry (reference value: 96.54%). The settings on record: Mitochondria. For orientation: A flow cytometer gives signals particle by particle.
Data set [6] deals with T1, Glutathione reductase, mitochondrial (Homo sapiens) (UniProt P00390).
T1 sequence (whole entry): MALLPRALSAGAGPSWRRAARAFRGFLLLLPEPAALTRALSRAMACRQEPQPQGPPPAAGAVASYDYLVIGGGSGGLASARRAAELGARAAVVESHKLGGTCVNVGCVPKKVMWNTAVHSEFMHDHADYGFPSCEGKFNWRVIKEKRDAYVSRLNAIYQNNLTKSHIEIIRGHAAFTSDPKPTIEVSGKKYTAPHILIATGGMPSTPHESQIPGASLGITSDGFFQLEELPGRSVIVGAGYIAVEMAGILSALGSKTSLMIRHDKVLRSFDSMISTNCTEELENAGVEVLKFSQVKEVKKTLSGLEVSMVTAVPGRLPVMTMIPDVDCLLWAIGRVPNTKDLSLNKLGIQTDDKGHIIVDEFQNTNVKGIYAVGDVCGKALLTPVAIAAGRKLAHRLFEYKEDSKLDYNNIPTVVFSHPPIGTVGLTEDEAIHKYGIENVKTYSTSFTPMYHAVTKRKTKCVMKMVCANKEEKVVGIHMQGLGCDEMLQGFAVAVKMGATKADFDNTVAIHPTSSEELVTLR
Nature of the data set: Inhibition of glutathione reductase in human HeLa cells mitochondria. The following applies: concentration not given here.

Data set [7] has as its system HeLa. The data set can be described thus: Inhibition of mitochondrial respiration in human HeLa cells assessed as decrease in ATP production capacity. The data set is classed as functional, cell-based.
Data set [8] concerns HeLa. The data set can be described thus: Increase in oxidized glutathione (GSSG) levels in human HeLa cells assessed as decrease in ratio of intracellular GSH to GSSG at 1 to 20 uM. It counts as functional, cell-based. The following applies: dose 1-20 µM.
In data set [9] the test system is HeLa. The data set can be described thus: Decrease in reduced glutathione (GSH) levels in human HeLa cells. The data set is classed as functional, cell-based.
In data set [10] the test system is HepG2. Nature of the data set: Cytotoxicity against human HepG2 cells assessed as reduction in cell viability measured after 48 hrs. The data set is classed as functional, cell-based. The settings on record: HepG2, 48 h.
Data set [11] has as its system HeLa. The data set can be described thus: Induction of mitochondrial morphological changes in human HeLa cells assessed as multilayered vesicles formation at IC50 incubated for 48 hrs by transmission electron microscopy. It counts as functional, cell-based.
The test system of data set [12] is HeLa. The data set can be described thus: Induction of ROS production in human HeLa cells by DCFDA staining based fluorescence analysis. It counts as functional, cell-based.
In data set [13] the test system is HeLa. Nature of the data set: Inhibition of glycolysis in human HeLa cells assessed as decrease in extracellular acidification rate at 2 uM. It counts as functional, cell-based.
In data set [14] the test system is HeLa. The data set can be described thus: Decrease in reduced glutathione (GSH) levels in human HeLa cells at 1 to 5 uM incubated for 6 hrs by Thiol-tracker Violet based confocal imaging analysis. It counts as functional, cell-based. The settings on record: dose 1-5 µM.
For data set [15], the system named is HeLa. The data set can be described thus: Cytotoxicity against human HeLa cells assessed as reduction in cell viability measured after 48 hrs. It counts as functional, cell-based.
Data set [16] has as its system HeLa. The data set can be described thus: Cytotoxicity against GR-knock out human HeLa cells assessed as reduction in cell viability at 10 uM incubated for 48 hrs. It counts as functional, cell-based.
Another data set has as its system HCT-116. Nature of the data set: Cytotoxicity against human HCT-116 cells assessed as reduction in cell viability measured after 48 hrs. The data set is classed as functional, cell-based. The settings on record: HCT-116, 48 h.
For data set [17], the system named is Cell membrane. The data set can be described thus: Dissipation of mitochondrial membrane potential in human HeLa cells assessed as increase in green fluorescence intensity at 0.5 to 5 uM measured after 24 hrs by JC-1 staining based fluorescence microscopy. The settings on record: Mitochondria, dose 0.5-5 µM.
Data set [18] has as its system HeLa. Nature of the data set: Induction of autophagy in human HeLa cells assessed as increase in ratio of lipidated LC3B-II to LC3B-I incubated for 24 hrs by immunoblotting analysis. The data set is classed as functional, cell-based. The settings on record: dose 0.5-10 µM. (In western blotting, separated proteins are transferred to a membrane and probed.)
Data set [19] has as its system Cell membrane. The data set can be described thus: Dissipation of mitochondrial membrane potential in human HeLa cells assessed as proportion of cells with low MMP at 5 uM measured after 24 hrs by JC-1 staining based flow cytometry (reference value: 3.01%). The following applies: Mitochondria.
Data set [20] concerns the target T2, Glutathione reductase, mitochondrial (Homo sapiens, UniProt P00390).
T2 sequence (P00390 whole entry): T1 sequence (whole entry)
Nature of the data set: Inhibition of glutathione reductase (unknown origin).

Data set [21] concerns HeLa. The data set can be described thus: Induction of mitophagy in human HeLa cells assessed as colocalization of mitochondria and lysosomes by confocal laser scanning microscopy. It counts as functional, cell-based.
Data set [22] can be described thus: Drug uptake in human HeLa cells mitochondria measured after 6 hrs. It counts as ADME.
Data set [23] is described as follows: Increase in oxidized glutathione (GSSG) levels in human HeLa cells relative to control. It counts as functional.
Data set [24] concerns HeLa. Nature of the data set: Induction of autophagy in human HeLa cells assessed as downregulation of p62 expression incubated for 24 hrs by immunoblotting analysis. The data set is classed as functional, cell-based. The settings on record: dose 0.5-10 µM.
Data set [25] concerns HepG2. Nature of the data set: Inhibition of glycolysis in human HepG2 cels assessed as decrease in extracellular acidification rate. It counts as functional, cell-based.
The next data set has as its system A549. Nature of the data set: Cytotoxicity against human A549 cells assessed as reduction in cell viability measured after 48 hrs. It counts as functional, cell-based. The settings on record: A549, 48 h.
In data set [26] the test system is HeLa. The data set can be described thus: Induction of mitophagy in human HeLa cells assessed as localization of mitochondria in vacuoles at 10 uM incubated for 48 hrs by transmission electron microscopy. The data set is classed as functional, cell-based.
Data set [27] deals with HeLa. The data set can be described thus: Inhibition of mitochondrial respiration in human HeLa cells assessed as increase in proton leakage. It counts as functional, cell-based.
In data set [28] the target is T1, Glutathione reductase, mitochondrial (Homo sapiens). The data set can be described thus: Inhibition of glutathione reductase in human HeLa cells. The data set is classed as cell-based. The settings on record: concentration not given here.
For data set [29], the system named is HeLa. Nature of the data set: Induction of autophagy in human HeLa cells assessed as autophagosomes vacuole formation. The data set is classed as functional, cell-based.
Data set [30] concerns HeLa. Nature of the data set: Induction of mitochondrial morphological changes in human HeLa cells assessed as increase in Mitofilin expression at 2 uM by immunofluorescence analysis. It counts as functional, cell-based.
For data set [31], the system named is HepG2. Nature of the data set: Inhibition of mitochondrial respiration in human HepG2 cells assessed as decrease in oxygen consumption rate by Seahorse XF-bioenergetic system analysis. The data set is classed as functional, cell-based.
Data set [32] deals with T1, Glutathione reductase, mitochondrial (Homo sapiens). The data set can be described thus: Covalent binding affinity to Cys278 residue of glutathione reductase (unknown origin) by mass spectrometry.
A further data set deals with MCF7. Nature of the data set: Cytotoxicity against human MCF7 cells assessed as reduction in cell viability measured after 48 hrs. The data set is classed as functional, cell-based. The following applies: MCF7, 48 h.
Data set [33] relates to Cell membrane. Nature of the data set: Dissipation of mitochondrial membrane potential in human HeLa cells assessed as proportion of cells with low MMP at 0.5 uM measured after 24 hrs by JC-1 staining based flow cytometry (reference value: 3.01%). The settings on record: Mitochondria.
For data set [34], the system named is Cell membrane. The data set can be described thus: Dissipation of mitochondrial membrane potential in human HeLa cells assessed as proportion of cells with low MMP measured after 24 hrs by JC-1 staining based flow cytometry (reference value: 3.01%). The settings on record: Mitochondria.
Data set [35] has as its system Cell membrane. Nature of the data set: Dissipation of mitochondrial membrane potential in human HeLa cells assessed as proportion of cells with high MMP measured after 24 hrs by JC-1 staining based flow cytometry (reference value: 96.54%). The settings on record: Mitochondria.

Calls of active or inactive are those of the source. The calls are words filed in the database; no cut-off is given here. A value given as a limit tells only on which side of the number the result lay.

One may read the inhibition as the change of the read-out against control, counted positive when it falls. Usually IC50 stands for the concentration at which inhibition is half-maximal. Regarding `O=C(/C=C/c1cccc([N+](=O)[O-])c1)c1ccc(OCc2cn(CCCC[P+](c3ccccc3)(c3ccccc3)c3ccccc3)nn2)c(F)c1`, the result with HeLa [1], in the data set on HeLa [8], in the data set on HeLa [11], in the data set with HeLa [12], in the data set with Cell membrane [17] and with HeLa [21] was Active. Besides, the result (in the data set on HeLa [26]; in the data set with HeLa [29]; with HeLa [30]; in data set [32]) was Active. Also, the Activity with Cell membrane [2] is 49.4%; in the data set with Cell membrane [5] it was 15.6%; with HeLa [18], “Dose-Dependent Effect”; with Cell membrane [19] it was 80.7%; in the data set with HeLa [24], “Dose-Dependent Effect”; in the data set with Cell membrane [33], 50.1%. For the same compound, the inhibition result in the data set with HeLa [3], in the data set with HeLa [4], in the data set on HeLa [7], in the data set on HeLa [13], in the data set with HepG2 [25] and in the data set with HeLa [27] was “Active” in each case. In addition, in the data set on HepG2 [31], the inhibition result is “Active”. Besides, the values for the inhibition in data set [6] and in data set [28] were 50% and 20%, respectively. Also, the inhibition result in the data set with HeLa [9] and in the data set with HeLa [14] was “inactive” each time. Moreover, the IC50 with HepG2 [10] is 4.6 µM; with HeLa [15], 2.4 µM; in the data set with HCT-116, 8.2 µM; in [20] (read-out: IC50) it was 0.59 µM; in the data set on A549, 10.2 µM; in the data set on MCF7, 17.4 µM. In the data set on HeLa [16], the outcome was inactive. This compound also showed a Drug uptake in data set [22] of 33%. In addition, the “fold change (FC)” value in [23] was 2.
Consider `COc1ccc(C(=O)/C=C/c2cccc([N+](=O)[O-])c2)cc1F`, for which the IC50 in the data set on HepG2 [10] is above 50 µM; in the data set on HeLa [15], above 50 µM; in the data set with HCT-116, above 50 µM; in data set [20] it was “Not Active”; in the data set with A549 it was above 100 µM; with MCF7, above 100 µM. The compound further showed a Drug uptake in data set [22] of 12%. Further, in [32], the result was inactive.
For `N#CC(C#N)=NNc1cccc(Cl)c1`, the results for the Activity with Cell membrane [34] and in the data set with Cell membrane [35] were 98.8% and 1.24%, respectively.
